Test results taken from patent US6951647B2, “T cell binding ligand peptides and method of inducing a cellular immune response” (Cel-Sci Corporation, priority 2001, dated 2005).
Where no end group is shown, it is not given here.

Details: saline (0.15 M NaCl, pH 7.4) or WFI, 0.5-2.0 mg/ml; 2-8, 18-25 or 40 °C; pH 7.4 to 4.5; HPLC
Description: The long range stability of the peptide constructs formed using Peptide G, was carried out with the construct dissolved in saline (0.15 M NaCl, pH 7.4) or in water for injection (WFI) at a concentration of 0.5-2.0 mg/ml and stored frozen soon after preparation.

DGQEEKAGVVSTGLI [Peptide G′]
Long range stability (deamination) of peptide constructs: overcomes the long range stabilization problem of the peptide conjugates
